# From patent US20050282870A1, “Peripherally-acting vasodilators” (priority 2004, published 2005)
# Tested on: forearm and dorsum of the foot skin
# Assay: Skin vasodilatory response to topical application of 1% methyl nicotinate, Laser Doppler Perfusion Imaging
# Format: in vivo, human
# Conditions: for maximal vasodilatory response: compared with acetylcholine and sodium nitroprusside
# Method: Vasodilation induced by topical application of methyl nicotinate was evaluated and compared with the vasodilatory response to acetylcholine and sodium nitroprusside in healthy subjects and diabetic neuropathic patients. Ten diabetic patients with peripheral neuropathy and 10 age- and sex-matched healthy control subjects were enrolled. The vasodilatory response to topical application of 1% methyl nicotinate and a placebo emulsion at the forearm and dorsum of the foot skin at 4, 15, 30, 60 and 120 min was measured using Laser Doppler Perfusion Imaging. The vasodilatory response to iontophoresis of 1% acetylcholine and 1% sodium nitroprusside solutions was also evaluated.
smiles,measurement,setting,value
COC(=O)c1cccnc1 [methyl nicotinate],vasodilatory response,"control group (healthy subjects), foot, topical 1%, compared to acetylcholine and sodium nitroprusside responses",higher
same,maximal vasodilatory response,"control group (healthy subjects), forearm, topical 1%",similar
same,maximal vasodilatory response,"diabetic patients with peripheral neuropathy, forearm and foot, topical 1%",similar
same,time after application at which vasodilation was present,topical 1% methyl nicotinate,5 min
same,time of decline of vasodilation to pre-application levels,topical 1% methyl nicotinate,120 min
same,time of peak vasodilation,topical 1% methyl nicotinate,15 to 30 min
